Test results from EP0139358B1, “N6-substituted diarylalkyl adenosines, processes for their production and pharmaceutical compositions comprising the same” (priority 1983, dated 1985).

Key:
Type in all cases: in vivo
conscious rat = experiment: Antihypertensive evaluation (AHP3): aortic blood pressure and heart rate; conditions: for Mμ.c. ↓ / HR ↑: conscious rat; for Mμ.c. ↓: decrease in mean arterial blood pressure; for HR ↑: heart rate increase
Swiss-Webster male mice = experiment: Mouse Activity and Screen Test (MAST): inhibition of spontaneous locomotion (LI); conditions: for Inhibition of mouse locomotor activity: one hour prior to testing, vs vehicle
[1] = tested on: Long-Evans rats or squirrel-monkeys; experiment: Antipsychotic lever-push shock avoidance protocol (SIDR); conditions: Rattus norvegicus, read-out: SIDR ED50
Experimental: Representative compounds of the invention (identified in the Examples) were also tested for antipsychotic activity according to the following protocol (SIDR). […] Mature male Long-Evans rats or squirrel-monkeys are conditioned to push a lever in order to avoid a painful electric footshock. If the animal fails to push the lever, he receives a shock every ten seconds until the lever is pushed. Shocks can be terminated by pushing the lever. Thereafter, as long as the lever is pushed at least once every 20 seconds, there will be no shock. Each animal acts as its own control; one weekly session is used to establish baseline behavior and another session later in the week is used as a drug session. Once patterns of avoidance are established, the effects of standard and unknown compounds are studied. All events are electronically programmed and the response to these events counted or used as feedback to the program.

OC[C@H]1O[C@@H](n2cnc3c(NCC(c4ccccc4)c4ccccc4)ncnc32)[C@H](O)[C@@H]1O [Example 1, N^6-(2,2-Diphenylethyl)adenosine]
Mμ.c. ↓ (conscious rat; 1 mg/kg): 16%
HR ↑ (conscious rat; 1 mg/kg): <20%
Mμ.c. ↓ (conscious rat; 3 mg/kg): 20%
HR ↑ (conscious rat; 3 mg/kg): <20%
Mμ.c. ↓ (conscious rat; 10 mg/kg): 20%
HR ↑ (conscious rat; 10 mg/kg): <20%
Mμ.c. ↓ (conscious rat; 30 mg/kg): 35%
HR ↑ (conscious rat; 30 mg/kg): <20%
minimal effective dose (conscious rat; Rattus norvegicus, read-out: AHP3 BP LAD): 1 mg/kg
Inhibition of mouse locomotor activity (Swiss-Webster male mice; 10 mg/kg intraperitoneally): 92%
Inhibition of mouse locomotor activity (Swiss-Webster male mice; 30 mg/kg intraperitoneally): 93%
Inhibition of mouse locomotor activity (Swiss-Webster male mice; 100 mg/kg intraperitoneally): 94%
minimal effective dose (Swiss-Webster male mice; Mus musculus, ip, read-out: MAST LI LAD): 3 mg/kg
ED50 [1]: 2.5 mg/kg
